{"source": "patent US9044531B2", "about": "“Vascular closure device” (Cordis Corporation, priority 2007, dated 2015)", "origin": "cited, not measured here", "test_system": "S. aureus", "conditions": "measured in a suitable growth medium; Bhargava et al., American Journal of Infection Control, June 1996"}
{"compound": "Oc1cc(Cl)ccc1Oc1ccc(Cl)cc1Cl", "note": "[2,4,4′-trichloro-2′-hydroxydiphenyl ether]", "values": [{"measurement": "minimum inhibitory concentration (MIC) against S. aureus", "value": 0.01, "unit": "ppm"}]}
